Laboratory results taken from US5086050A, “Method of treating inflammatory disorders and psoriasis with salts of azelastine” (priority 1989, dated 1992).
Counter-ions that a name gives are not always drawn. Like-named read-outs stand apart in the source and are kept apart here. Each block holds one molecule with its values, some of them ahead of it.

Tests used:
Assay type in all cases: physicochemical
[1] = Solubility in water at 20° C. (azelastine and previously known salts)
[2] = Solubility and pH value of the aqueous solution on addition of excess acid
Excerpt: Addition of excess amounts of acid increases the solubility of the salts. For example a 1-fold, preferably a 0.5-fold, in particular a 0.25-fold excess of acid may be used.
For example, the addition of acids yields the following solubility and following pH value of the aqueous solution: […]

[3] = Solubility in water at room temperature (salts of the invention)
[4] = aqueous solution, excess acid 0 mol
[5] = aqueous solution, excess acid 0.1 mol
[6] = aqueous solution, excess acid 0.25 mol

Solubility in water [1]: ca. 1%
Compound: CN1CCCC(n2nc(Cc3ccc(Cl)cc3)c3ccccc3c2=O)CC1 (stereo not drawn) [phosphate]

pH value ([2]; aqueous solution, excess acid 0.5 mol): 4.5 | Solubility ([2]; aqueous solution, excess acid 0.5 mol, read-out: Solubility): 100 mg/mL | Solubility in water [3]: up to 55%
Compound: CN1CCCC(n2nc(Cc3ccc(Cl)cc3)c3ccccc3c2=O)CC1 (stereo not drawn) [gluconate, azelastine gluconate]

Solubility in water [1]: under 1%
Compound: CN1CCCC(n2nc(Cc3ccc(Cl)cc3)c3ccccc3c2=O)CC1 (stereo not drawn) [fumarate]

Solubility in water [1]: 0.005%
Compound: CN1CCCC(n2nc(Cc3ccc(Cl)cc3)c3ccccc3c2=O)CC1 (stereo not drawn) [Azelastine, 4-(4-chlorobenzyl)-2-(perhydro-1methylazepine-4-yl)-1-(2H) phthalazinone]

pH value [2, 4]: 3.85 | Solubility ([2]; excess acid 0 mol): 5% | Solubility in water [3]: 3%
Compound: CN1CCCC(n2nc(Cc3ccc(Cl)cc3)c3ccccc3c2=O)CC1 (stereo not drawn) [malate, azelastine malate]

Solubility in water [1]: 1%
Compound: CN1CCCC(n2nc(Cc3ccc(Cl)cc3)c3ccccc3c2=O)CC1 (stereo not drawn) [hydrochloride]

Solubility in water [1]: ca. 1%
Compound: CN1CCCC(n2nc(Cc3ccc(Cl)cc3)c3ccccc3c2=O)CC1 (stereo not drawn) [methane sulphonate]

Solubility in water [1]: under 1%
Compound: CN1CCCC(n2nc(Cc3ccc(Cl)cc3)c3ccccc3c2=O)CC1 (stereo not drawn) [toluene sulphonate]

Solubility in water [1]: ca. 1%
Compound: CN1CCCC(n2nc(Cc3ccc(Cl)cc3)c3ccccc3c2=O)CC1 (stereo not drawn) [succinate]

Solubility in water [1]: under 1%
Compound: CN1CCCC(n2nc(Cc3ccc(Cl)cc3)c3ccccc3c2=O)CC1 (stereo not drawn) [benzene sulphonate]

Solubility in water [1]: 0.0015%
Compound: CN1CCCC(n2nc(Cc3ccc(Cl)cc3)c3ccccc3c2=O)CC1 (stereo not drawn) [embonate]

pH value [2, 4]: 5.15 | pH value [2, 5]: 4.6 | pH value [2, 6]: 4.1 | Solubility ([2]; excess acid 0 mol): 3% | Solubility ([2]; excess acid 0.1 mol): 5% | Solubility ([2]; excess acid 0.25 mol): 10% | Solubility in water [3]: more than 10%
Compound: CN1CCCC(n2nc(Cc3ccc(Cl)cc3)c3ccccc3c2=O)CC1 (stereo not drawn) [lactate, azelastine lactate]

Solubility in water [1]: ca. 1%
Compound: CN1CCCC(n2nc(Cc3ccc(Cl)cc3)c3ccccc3c2=O)CC1 (stereo not drawn) [maleate]

pH value [2, 4]: 6.35 | pH value [2, 5]: 5.52 | Solubility ([2]; aqueous solution, excess acid 0.1 mol, read-out: Solubility): 30 mg/mL | pH value [2, 6]: 5.1 | Solubility ([2]; aqueous solution, excess acid 0.25 mol, read-out: Solubility): 100 mg/mL | Solubility ([2]; excess acid 0 mol): 2% | Solubility in water [3]: more than 10%
Compound: CN1CCCC(n2nc(Cc3ccc(Cl)cc3)c3ccccc3c2=O)CC1 (stereo not drawn) [acetate, azelastine acetate]
